Data set [1] has as its system panel of osteosarcoma cells (U2-OS, Saos-2, MG-63, MNNG/HOS, KHOS/NP). The data set is described as follows: Growth inhibition assay across panel of osteosarcoma cell lines. It is filed as cell-based. The following applies: for IC50: range over five osteosarcoma cell lines.
The next data set has as its system Saos-2. Kind of data set: cells. Format: cell-based, human. To be noted: for IC50: Homo sapiens, SAOS-2, 120 h, read-out: IC50 growth inhibition.
Data set [2] concerns Saos-2 osteosarcoma xenograft. Kind of data set: Saos-2 xenograft tumor growth (caliper, CT). It is filed as in vivo, NSG male mice. The following applies: 80 mg/kg oral gavage every other day for 20 days; end of treatment. On the procedure: Animal experiments were executed in accordance with a protocol approved by the McGill Institutional Animal Care Committee (McGill University Health Centre Research Institute and McGill University, Montreal, Canada). Xenografts of the tumors were obtained via unilateral and subcutaneous injection (5 × 10^6 cells in 100 µL of a PBS1x solution) into immunodeficient NSG male mice (N = 28; 8 weeks old; weight = 30 g; Charles River, Canada). The mice were maintained at optimal temperature (24 °C) and relative humidity (50%) on a 12/12-light/dark cycle with free access to water and food. The mice were monitored clinically every day; body weights were recorded and tumor volumes were measured with a caliper using the formula 4/3 π (length/2) (width/2)^2 every other day. Once tumors reached 68 mm^3, the mice were randomly divided into 4 groups: 1 was treated with ZR2002 (N = 7), another was treated with JS84 (N = 7), another was treated with JS61 (N = 7) and the last was treated with a vehicle (N = 7). […]
All PET/CT experiments were performed using nanoScan PET/CT for small animals (Mediso Medical Imaging Systems, Budapest, Hungary). […] The mice were kept awake for 45 min before the scans and weighed, and glycemia was measured in blood drawn from the caudal artery. […] Temperature and heart rate were monitored throughout the procedure using the Mediso system. […] The CT volume-of-interest (VOI) was drawn manually on the CT and PET co-registered images. ^18F-FDG accumulation was quantified as the mean standardized uptake value (SUV) between 20 and 30 min post-injection in a 3D volume-of-interest (VOI), which was named the metabolic volume (MV), delineated semi-automatically with iso-contours at a 40% threshold of the maximal SUV [30] in the tumor on PET/CT fusion slices using the PMOD software package v3.6 (PMOD Technologies Ltd., Zürich, Switzerland). In addition, another tumor volume-based parameter, called total lesion glycolysis (TLG), was calculated according to the product between the MV and the mean SUV. […]

In a further data set the test system is KHOS/NP. Kind of data set: cells. Format: cell-based. The following applies: Homo sapiens, 120 h, read-out: IC50 growth inhibition.
A short description of data set [3]: Body weight / tolerance in xenografted mice. To be noted: 80 mg/kg oral gavage every other day, 10 doses. Format: in vivo, NSG male mice. On the procedure:
Animal experiments were executed in accordance with a protocol approved by the McGill Institutional Animal Care Committee (McGill University Health Centre Research Institute and McGill University, Montreal, Canada). Xenografts of the tumors were obtained via unilateral and subcutaneous injection (5 × 10^6 cells in 100 µL of a PBS1x solution) into immunodeficient NSG male mice (N = 28; 8 weeks old; weight = 30 g; Charles River, Canada). The mice were maintained at optimal temperature (24 °C) and relative humidity (50%) on a 12/12-light/dark cycle with free access to water and food. The mice were monitored clinically every day; body weights were recorded and tumor volumes were measured with a caliper using the formula 4/3 π (length/2) (width/2)^2 every other day. Once tumors reached 68 mm^3, the mice were randomly divided into 4 groups: 1 was treated with ZR2002 (N = 7), another was treated with JS84 (N = 7), another was treated with JS61 (N = 7) and the last was treated with a vehicle (N = 7). The mice were treated every other day for 20 days, receiving a total of 10 doses via oral gavage of 200 µL of a ZR2002, JS61 or JS84 solution at a dose of 80 mg/kg body weight or the vehicle (control group). The drugs were dissolved in a solution of 25% of alcohol (Greenfield, Toronto, ON, Canada), 25% of Cremophor (Sigma-Aldrich, St. Louis, MO, USA) and 50% of 0.9% NaCl (Sigma-Aldrich, St. Louis, MO, USA). The vehicle solution used the same mixture without any drug.

The test system of data set [4] is Saos-2 osteosarcoma xenograft. The data set is described as follows: 18F-FDG PET/CT imaging of tumors. It is filed as in vivo, NSG male mice. To be noted: day 22, 80 mg/kg oral; for total lesion glycolysis (TLG): FDG-PET. On the procedure:
All PET/CT experiments were performed using nanoScan PET/CT for small animals (Mediso Medical Imaging Systems, Budapest, Hungary). The radiotracer 2′-deoxy-2′-[^18F]fluoro-D-glucose (^18F-FDG) was inoculated via 1 bolus injection in the tail vein (5.3 MBq in 100 µL). All animals were starved from the night before the experiment. The mice were kept awake for 45 min before the scans and weighed, and glycemia was measured in blood drawn from the caudal artery. Afterward, each mouse was placed in the scanner, with the […] at the center of the field of view. Each PET/CT session consisted of a 30 min PET emission scan followed by a 10 min CT transmission scan. The PET/CT scans were conducted under anesthesia (isoflurane 2%; medical air (0.6 L/min)) delivered via a nose cone. Temperature and heart rate were monitored throughout the procedure using the Mediso system. Images were reconstructed using expectation maximization (EM) and ordered subset expectation maximization (OSEM), normalized, and corrected for scatter, dead time and decay. The CT volume-of-interest (VOI) was drawn manually on the CT and PET co-registered images. ^18F-FDG accumulation was quantified as the mean standardized uptake value (SUV) between 20 and 30 min post-injection in a 3D volume-of-interest (VOI), which was named the metabolic volume (MV), delineated semi-automatically with iso-contours at a 40% threshold of the maximal SUV [30] in the tumor on PET/CT fusion slices using the PMOD software package v3.6 (PMOD Technologies Ltd., Zürich, Switzerland). In addition, another tumor volume-based parameter, called total lesion glycolysis (TLG), was calculated according to the product between the MV and the mean SUV. Furthermore, at the end of the imaging sessions, the tumors were resected and processed for ex vivo analysis.

The test system of the next data set is MG-63. Kind of data set: cells. Format: cell-based. To be noted: Homo sapiens, MG-63, 120 h, read-out: IC50 growth inhibition.
For another data set, the system named is U2-OS. Kind of data set: cells. The following applies: Homo sapiens, U2OS, 120 h, read-out: IC50 growth inhibition. It is filed as cell-based.

Consider 3 compounds from publication PMC10046901, “Molecular Analysis of the Superior Efficacy of a Dual Epidermal Growth Factor Receptor (EGFR)-DNA-Targeting Combi-Molecule in Comparison with Its Putative Prodrugs 6-Mono-Alkylamino- and 6,6-Dialkylaminoquinazoline in a Human Osteosarcoma Xenograft Model” (Cells, 2023).

Each structure is given as a SMILES string. “Also recorded” adds a separate entry of the source.

By IC50 is commonly meant the point on the concentration scale where inhibition reaches its midpoint.

Regarding `ClCCNc1ccc2ncnc(Nc3cccc(Br)c3)c2c1` [ZR2002], the IC50 in data set [1] is 80 to 450 nM; in the data set with Saos-2 it was 80 ± 10 nM; in the data set on KHOS/NP, 190 ± 30 nM; in the data set on MG-63 it was 0.45 ± 0.08 µM; in the data set with U2-OS it was 80 ± 10 nM. The “fold more potent than JS61” value in data set [1] (ratio of IC50 values across the panel) is given as 17–36 fold. In the data set on Saos-2, the “fold more potent than JS84” value is on record as 7 fold. In data set [2], the “tumor size / growth inhibition vs vehicle (caliper and CT scan)” value was “significantly reduced”. Moreover, the “tolerance / body weight throughout treatment” value in data set [3] is “no significant weight loss”. For the same compound, the “CT tumor volume vs vehicle” value in data set [4] is recorded as “significant reduction”. In data set [4], the “metabolic volume (MV) vs vehicle, FDG-PET” value is “significant reduction”. Moreover, in data set [4], the “total lesion glycolysis (TLG)” value is “reduction in TLG”.
Turning to `CN(CCCl)c1ccc2ncnc(Nc3cccc(Br)c3)c2c1` [JS84], the IC50 in data set [1] is 180 to 5040 nM; in the data set with Saos-2 it was 250 ± 40 nM; in the data set on KHOS/NP, 1380 ± 300 nM; in the data set with MG-63 it was 5.04 ± 0.98 µM; in the data set with U2-OS it was 180 ± 30 nM. The “tumor size / growth inhibition vs vehicle (caliper and CT scan)” value in data set [2] is listed as “no significant growth inhibition; also recorded: minor antitumor activity”. Besides, in data set [3], the “tolerance / body weight throughout treatment” value is reported as “no significant weight loss”. Besides, in data set [4], the “CT tumor volume vs vehicle” value is “not statistically different”. In addition, the “metabolic volume (MV) vs vehicle, FDG-PET” value in data set [4] is “not statistically different”. Moreover, the “total lesion glycolysis (TLG)” value in data set [4] was “reduction in TLG”.
As for `ClCCN(CCCl)c1ccc2ncnc(Nc3cccc(Br)c3)c2c1` [JS61], the IC50 in data set [1] was 1390 to 12500 nM; with Saos-2 it was 1590 ± 100 nM; in the data set with KHOS/NP, 6830 ± 500 nM; in the data set on MG-63, 12.5 ± 0.61 µM; in the data set with U2-OS it was 1390 ± 20 nM. In addition, the “tumor size / growth inhibition vs vehicle (caliper and CT scan)” value in data set [2] was “no significant growth inhibition”. Further, the “tolerance / body weight throughout treatment” value in data set [3] is on record as “no significant weight loss”.
